For orientation: TD50 means the dose at which the toxic effect under study appears in half of the subjects.

The structures appear in SMILES notation. The source made the active and inactive calls. The rule behind the calls is not given here.

The data set concerns rodent lifetime carcinogenesis bioassay, tumor incidence TD50. The data set can be described thus: carcinogenic potency in animals, long-term in vivo studies, CPDB compilation (AID 1745844).

Consider `c1ccc2[nH]c(-c3cscn3)nc2c1`, for which the TD50 by setting is: (mouse, strain B6C3F1, males, in feed, site: liver, lesion: hepatocellular adenoma, dosed 52 weeks, study length 52 weeks) 390 mg/kg/day (inactive); (mouse, strain Crj: CD-1 (ICR), females, in feed, site: lung, lesion: alveolar/bronchiolar adenoma, dosed 78 weeks, study length 78 weeks) 4880 mg/kg/day (inactive); (mouse, strain Crj: CD-1 (ICR), females, in feed, site: urinary bladder, lesion: mesenchymal neoplasm, dosed 78 weeks, study length 78 weeks) 16300 mg/kg/day (inactive); (mouse, strain Crj: CD-1 (ICR), males, in feed, site: urinary bladder, lesion: transitional-cell papilloma, dosed 78 weeks, study length 78 weeks) 15000 mg/kg/day (inactive); (rat, strain F344/DuCrj, females, in feed, site: urinary bladder, lesion: transitional-cell papilloma, dosed 104 weeks, study length 104 weeks) 7640 mg/kg/day (inactive); (rat, strain F344/DuCrj, males, in feed, site: kidney, lesion: transitional-cell carcinoma, dosed 104 weeks, study length 104 weeks) 3050 mg/kg/day (inactive). Moreover, the TD50 (rat, strain F344/DuCrj, males, in feed, site: preputial gland, lesion: adenoma, dosed 104 weeks, study length 104 weeks) stood at 571 mg/kg/day. In addition, the carcinogen call (mouse, strain Crj: CD-1 (ICR), females, in feed, site: liver, lesion: one or several types, types not named, dosed 78 weeks, study length 78 weeks) was “negative (inactive)”; the carcinogen call (mouse, strain Crj: CD-1 (ICR), females, in feed, site: lung, lesion: alveolar/bronchiolar carcinoma, dosed 78 weeks, study length 78 weeks) was “negative (inactive)”; the carcinogen call (mouse, strain Crj: CD-1 (ICR), males, in feed, site: liver, lesion: hepatocellular adenoma, dosed 78 weeks, study length 78 weeks) was “negative (inactive)”; the carcinogen call (mouse, strain Crj: CD-1 (ICR), males, in feed, site: liver, lesion: hepatocellular carcinoma, dosed 78 weeks, study length 78 weeks) is “negative (inactive)”; the carcinogen call (mouse, strain Crj: CD-1 (ICR), males, in feed, site: lung, lesion: alveolar/bronchiolar adenoma, dosed 78 weeks, study length 78 weeks) was “negative (inactive)”; the carcinogen call (mouse, strain Crj: CD-1 (ICR), males, in feed, site: lung, lesion: alveolar/bronchiolar carcinoma, dosed 78 weeks, study length 78 weeks) is “negative (inactive)”. Besides, the carcinogen call (rat, strain F344/DuCrj, females, in feed, site: kidney, lesion: transitional-cell carcinoma, dosed 104 weeks, study length 104 weeks) was “negative (inactive)”; the carcinogen call (rat, strain F344/DuCrj, females, in feed, site: liver, lesion: one or several types, types not named, dosed 104 weeks, study length 104 weeks) was “negative (inactive)”; the carcinogen call (rat, strain F344/DuCrj, males, in feed, site: liver, lesion: one or several types, types not named, dosed 104 weeks, study length 104 weeks) is “negative (inactive)”; the carcinogen call (rat, strain F344/DuCrj, males, in feed, site: urinary bladder, lesion: transitional-cell papilloma, dosed 104 weeks, study length 104 weeks) was “negative (inactive)”.

On to `CCCCC/C=C\C/C=C\CCCCCCCC(=O)O[C@H](COC(=O)CCCCCCCCCCCCCCC)COP(=O)([O-])OCC[N+](C)(C)C`, for which the carcinogen call (rat, strain Wistar, females, in feed, site: liver, lesion: nodular hyperplasia, dosed 104 weeks, study length 104 weeks) is “negative (inactive)”. Also, the TD50 (rat, strain Wistar, males, in feed, site: liver, lesion: cholangioma, dosed 104 weeks, study length 104 weeks) was 42200 mg/kg/day (inactive).

As for `CC[C@@H]1NC(=O)[C@@H]2[C@H](Cl)[C@H](Cl)CN2C(=O)[C@H](CO)NC(=O)C[C@H](c2ccccc2)NC(=O)[C@H](CO)NC1=O`, the TD50 runs as follows: (mouse, strain ddNi, males, in feed, site: liver, lesion: hepatoma, dosed 160 weeks, study length 160 weeks) 99.5 mg/kg/day; (mouse, strain ddNi, males, in feed, site: liver, lesion: liver-cell adenoma, dosed 160 weeks, study length 160 weeks) 48.6 mg/kg/day; (mouse, strain ddNi, males, in feed, site: liver, lesion: liver-cell carcinoma, dosed 160 weeks, study length 160 weeks) 98.9 mg/kg/day; (mouse, strain ddNi, males, in feed, site: liver, lesion: several types, types named in the paper, dosed 160 weeks, study length 160 weeks) 23.6 mg/kg/day.

For `CC(O)C(=O)O` (stereo not given), the TD50 is, setting by setting: (rat, strain F344/DuCrj, females, in drinking water, site: any site (literature study), lesion: one or several types, types not named, dosed 104 weeks, study length 113 weeks) 103000 mg/kg/day; (rat, strain F344/DuCrj, males, in drinking water, site: liver, lesion: hepatocellular adenoma, dosed 104 weeks, study length 113 weeks) 54500 mg/kg/day.
